In patent US9415107B2, “Compositions and methods for the treatment of addiction and other neuropsychiatric disorders” (priority 2005, dated 2016):
“Also recorded” adds a separate entry of the source.

Columns and labels:
[1] = Pharmacokinetic interaction between cocaine, metyrapone and oxazepam (plasma concentrations by GCMS); conditions: presence of iv cocaine
Description: Adult male Wistar rats (90 to 120 days old) were implanted with chronic, indwelling jugular catheters and were allowed to recover from surgery. […] Thirty minutes following the drug combination or vehicle injection, the rats received intravenous injections of cocaine (0.25 mg/kg/infusion) every 2 minutes for 1 hour. After the final injection of cocaine, blood was collected from the catheter for the analysis of cocaine and its metabolites ecgonine methyl ester and benzoylecgonine. […] All drug concentrations were determined using GCMS procedures.

[2] = tested on: plasma corticosterone; assay: Plasma corticosterone after metyrapone pretreatment; conditions: pretreatment with metyrapone
[3] = tested on: adult male Wistar rats; assay: Intravenous cocaine self-administration under a multiple, alternating schedule of food reinforcement and cocaine self-administration; assay type: in vivo, rat; conditions: for cocaine self-administration (number of infusions): ip pretreatment; for cocaine self-administration: pretreatment with the drug alone, general statement
Description: Adult male Wistar rats were trained under a multiple, alternating schedule of cocaine and food self-administration. This schedule consisted of alternating periods of cocaine access and food reinforcement. In some instances, as described further below, three doses of cocaine (0.125, 0.25, or 0.50 mg/kg/infusion) were tested. Rats were also periodically trained with saline substitution (cocaine extinction) and food extinction during the same session.
More specifically, adult male Wistar rats were implanted with chronic jugular catheters. Following recovery from surgery, the rats were trained to respond under a multiple, alternating schedule of food reinforcement and cocaine self-administration. Food-maintained responding was used to control for the non-specific motor effects of the various treatments. During the food component of the schedule, the stimulus light located above the food response lever was illuminated to indicate the availability of food reinforcement. […] A 25-second timeout followed the delivery of each food pellet. During this timeout, the stimulus light was darkened and responses on the food lever were counted but had no scheduled consequences. Responding on the other (cocaine) lever during the food component also had no scheduled consequences. […] Following 15 minutes of access to food, all stimulus lights in the chamber were darkened for a 1-minute timeout. Following the timeout, the stimulus light above the cocaine response lever was illuminated to indicate the availability of cocaine (0.125, 0.25, or 0.5 mg/kg/infusion). […] A 20-second timeout period followed each infusion. […] After 15 minutes of access to cocaine and a 1-minute timeout, the rats were again allowed 15 minutes access to the food component of the schedule. Access to food and cocaine alternated in this manner every 15 minutes during the two hour behavioral sessions so that each rat was exposed to food and cocaine for four 15-minute periods each. Each behavioral session began with 15 minutes access to either food or cocaine, and this alternated daily. Stable baselines of responding were established when the total number of cocaine and food presentations, as well as the number of presentations during each of the four exposures each session, varied less than 10% for three consecutive sessions. At least three different doses of cocaine (e.g., 0.125, 0.25, and 0.5 mg/kg/infusion) were tested. Rats were first trained to self-administer 0.25 mg/kg/infusion, our standard dose of cocaine. When responding stabilized, the dose was changed to 0.125 or 0.5 mg/kg/infusion as appropriate.
Once stable baselines of responding were obtained, dose-response curves for the various compounds were individually generated for each rat. Rats were treated with each dose at least twice with a minimum of two days of baseline cocaine self-administration interspersed between each test. Each group of rats was tested with only two of the test compounds to minimize potential carryover effects. […] This rationale guided the selection of the doses of each of the compounds in the combination studies. Each experimental group consisted of between 8 and 10 rats.

[4] = tested on: male Wistar rats; assay: Forced Swim Test (FST), animal model of depression
[5] = tested on: adult male Wistar rats; assay: Cue-induced reinstatement of extinguished cocaine seeking (model of relapse); assay type: in vivo, rat; conditions: for reinstatement of extinguished cocaine seeking: pretreatment with the drug alone, general statement
Description: In our model, rats were exposed to alternating 15-minute periods of access to cocaine self-administration and food reinforcement. Food was used to control for potential nonspecific, ataxis effects of the drugs and combinations. […] The other preclinical model we used is the cue-induced reinstatement of extinguished cocaine seeking model of relapse. In this model, rats are trained to self-administer cocaine and the ability of conditioned cues in the environment to reinstate extinguished responding is assessed and taken as a measure of relapse.
The experiments described herein were designed to investigate whether or not drug combinations identified as effective in reducing cocaine self-administration would also block the ability of conditioned cues to reinstate extinguished cocaine-seeking behavior. Adult male Wistar rats were implanted with chronic jugular catheters and trained to self-administer cocaine (0.25 mg/kg/infusion) by pressing one of the response levers in the experimental chamber (i.e., the “active” or “cocaine” lever) under a fixed-ratio four (FR4) schedule of reinforcement during daily 2-hour sessions conducted 5 days per week. At the start of each session, both levers were extended into the chamber and the stimulus light above the active lever was illuminated to indicate the availability of cocaine. […] A 20-second timeout period followed each infusion. The stimulus light above the active lever and the house light and tone compound stimulus were extinguished during the timeout period, and the light above the active lever was illuminated once the timeout ended. When responding on the active lever varied less than 20% for two consecutive days, the response requirement was increased to FR2. When similar stability was observed under the FR2 schedule or reinforcement, the response requirement was increased to the final ratio of four. The criteria for stable responding under the FR4 schedule of reinforcement was a minimum of 10 days of exposure to this schedule that concluded with at least three consecutive days when responding varied by less than 10%. […] Once stable cocaine self-administration was observed, rats were exposed to extinction; the rats were placed into the behavioral chambers, but responding on the “cocaine” (active) lever produced no programmed consequences. Extinction training continued until responding decreased to less than 20% of baseline self-administration. Then reinstatement testing commended. The rats were placed into the experimental chambers, both response levers were extended into the chamber, and the stimulus light above the “active” lever was illuminated as during self-administration training. […] Responding on the “active” lever during reinstatement testing was taken as an index of cocaine-seeking behavior. Each experimental group consisted of 8 to 10 rats.

[6] = low, ineffective dose of the drug alone

SMILES | effect on plasma concentrations of metyrapone or oxazepam [1] | plasma corticosterone [2] | cocaine self-administration (number of infusions) ([3]; high dose of the drug alone) | cocaine self-administration (number of infusions) [3, 6] | cocaine self-administration [3] | immobility time in the FST ([4]; chronic administration, Met50 group (metyrapone 50 mg/kg alone)) | mean immobility time relative to vehicle (tolerance) ([4]; chronically treated groups that received only Ox or Met) | cocaine seeking (responding on the active lever during reinstatement) ([5]; chronic metyrapone 50 mg/kg, ip, once per day for 14 days) | reinstatement of extinguished cocaine seeking [5] | minimally effective dose that reduced cocaine self-administration by at least 50% without affecting food-maintained responding ([3]; drug alone)
COC(=O)[C@H]1[C@@H](OC(=O)c2ccccc2)C[C@@H]2CC[C@H]1N2C [cocaine] | did not affect | – | – | – | – | – | – | – | – | –
CC(C)(C(=O)c1cccnc1)c1cccnc1 [metyrapone] | – | significant dose-related decreases | reduced cocaine self-administration | did not significantly affect cocaine self-administration; also recorded: no longer affected cocaine self-administration | decrease; also recorded: significant dose-related decreases | showed a lessening of immobility time | equal to or exceeded the vehicle | reduced cocaine seeking to levels seen when only saline was delivered | decrease | –
CCCCN(CC)c1nc(C)nc2c1c(C)cn2-c1c(C)cc(C)cc1C [CP-154,526] | – | – | reduced cocaine self-administration | did not significantly affect cocaine self-administration | decrease | – | – | – | decrease | –
CC(=O)N1CCN(c2ccc(OCC3COC(Cn4ccnc4)(c4ccc(Cl)cc4Cl)O3)cc2)CC1 (centres unmarked) [ketoconazole] | – | – | – | no effect; also recorded: did not significantly affect cocaine self-administration | decrease | – | – | – | decrease | 25 mg/kg
Cc1nnc2n1-c1ccc(Cl)cc1C(c1ccccc1)=NC2 [alprazolam] | – | – | reduced cocaine self-administration | did not significantly affect cocaine self-administration | decrease | – | – | – | decrease | –
NCc1cc(=O)[nH]o1 [muscimol] | – | – | reduced cocaine self-administration | did not significantly affect cocaine self-administration | – | – | – | – | – | –
